Data taken from patent US12568972B2, “Pyridazinol compounds and derivatives, preparation methods, herbicidal compositions and applications thereof” (Qingdao Kingagroot Chemical Compound Co., Ltd., priority 2018, dated 2026).

Key:
Experiment in all cases: Post-emergence test, weed control effect
Type in all cases: in vivo
Conditions in all cases: after 3 weeks
Chenopodiaceae = system: Chenopodiaceae
Description: (§1) The activity level standard of harmful plant destruction (i.e. growth inhibition rate) is as follows: • Level 10: completely dead; • Level 9: above 90% growth inhibition rate; • Level 8: above 80% growth inhibition rate; • Level 7: above 70% growth inhibition rate; • Level 6: above 60% growth inhibition rate; • Level 5: above 50% growth inhibition rate; • Level 4: above 40% growth inhibition rate; • Level 3: above 30% growth inhibition rate; • Level 2: above 20% growth inhibition rate; • Level 1: below 20% growth inhibition rate; • Level 0: no effect.
(§2) The above described growth inhibition rates are fresh weight inhibition rates.
(§3) Experiment of post-emergence test: monocotyledonous and dicotyledonous weed seeds as well as main crop seeds (i.e., wheat, corn, rice, soybean, cotton, oilseed rape, millet and sorghum) were put into a plastic pot loaded with soil, then covered with 0.5-2 cm of soil, and the seeds were allowed to grow in good greenhouse environment. The test plants were treated at 2-3 leaf stage 2-3 weeks after sowing. The test compounds of the invention were dissolved in acetone respectively, then added with Tween-80 and diluted by a certain amount of water to give solutions with certain concentrations, and added with 80% vegetable oil methyl ester synergist at 1500 g/ha. The solution was sprayed to the plants with a sprayer. The plants were cultured for 3 weeks in the greenhouse.

Amaranthus retroflexus = system: Amaranthus retroflexus
Description: as §1, §2, §3

Rorippa indica = system: Rorippa indica
Description: as §1, §2, §3

Veronica polita = system: Veronica polita
Description: as §1, §2, §3

Cc1ccc(S(=O)(=O)Oc2cc(C(F)(F)F)nnc2-c2ccc(F)c(F)c2)cc1 [Compound 1-127]
10: weed control effect, Chenopodiaceae (activity level) (Chenopodiaceae; Dose 3000 g/ha) | weed control effect, Amaranthus retroflexus (activity level) (Amaranthus retroflexus; Dose 3000 g/ha) | weed control effect, Rorippa indica (activity level) (Rorippa indica; Dose 3000 g/ha) | weed control effect, Veronica polita (activity level) (Veronica polita; Dose 3000 g/ha)

CN(C)c1ccc(-c2nnc(C(F)(F)F)cc2O)cc1 [Compound 97]
10: weed control effect (activity level), Chenopodiaceae (Chenopodiaceae; dose 1000 g/ha) | weed control effect (activity level), Amaranthus retroflexus (Amaranthus retroflexus; dose 1000 g/ha) | weed control effect (activity level), Rorippa indica (Rorippa indica; dose 1000 g/ha) | weed control effect (activity level), Veronica polita (Veronica polita; dose 1000 g/ha)

Oc1cc(C(F)(F)F)nnc1-c1ccc(F)cc1C(F)(F)F [Compound 764]
10: weed control effect (activity level), Chenopodiaceae (Chenopodiaceae; Dose 3000 g/ha) | weed control effect (activity level), Amaranthus retroflexus (Amaranthus retroflexus; Dose 3000 g/ha) | weed control effect (activity level), Rorippa indica (Rorippa indica; Dose 3000 g/ha) | weed control effect (activity level), Veronica polita (Veronica polita; Dose 3000 g/ha)

Oc1cc(C(F)(F)F)nnc1-c1ccc(Cl)c(Cl)c1 [Compound 38]
10: weed control effect (activity level), Chenopodiaceae (Chenopodiaceae; dose 1000 g/ha) | weed control effect (activity level), Amaranthus retroflexus (Amaranthus retroflexus; dose 1000 g/ha) | weed control effect (activity level), Rorippa indica (Rorippa indica; dose 1000 g/ha) | weed control effect (activity level), Veronica polita (Veronica polita; dose 1000 g/ha)

Oc1cc(C(F)(F)F)nnc1-c1cc(Cl)cnc1F [Compound 998]
10: weed control effect (activity level), Chenopodiaceae (Chenopodiaceae; Dose 3000 g/ha) | weed control effect (activity level), Amaranthus retroflexus (Amaranthus retroflexus; Dose 3000 g/ha) | weed control effect (activity level), Rorippa indica (Rorippa indica; Dose 3000 g/ha) | weed control effect (activity level), Veronica polita (Veronica polita; Dose 3000 g/ha)

NC(=O)c1ccc(S(=O)(=O)Oc2cc(C(F)(F)F)nnc2-c2ccc(C(F)(F)F)cc2)cc1 [Compound 1-141]
10: weed control effect, Chenopodiaceae (activity level) (Chenopodiaceae; Dose 3000 g/ha) | weed control effect, Amaranthus retroflexus (activity level) (Amaranthus retroflexus; Dose 3000 g/ha) | weed control effect, Rorippa indica (activity level) (Rorippa indica; Dose 3000 g/ha) | weed control effect, Veronica polita (activity level) (Veronica polita; Dose 3000 g/ha)

CCCCC(CC)OC(=O)Oc1cc(C(F)(F)F)nnc1-c1ccc(Br)c([N+](=O)[O-])c1 (centres unmarked) [Compound 1-36]
10: weed control effect, Chenopodiaceae (activity level) (Chenopodiaceae; Dose 3000 g/ha) | weed control effect, Amaranthus retroflexus (activity level) (Amaranthus retroflexus; Dose 3000 g/ha) | weed control effect, Rorippa indica (activity level) (Rorippa indica; Dose 3000 g/ha) | weed control effect, Veronica polita (activity level) (Veronica polita; Dose 3000 g/ha)

Oc1cc(C(F)(F)F)nnc1-c1ccc(Cl)c(Cl)c1Cl [Compound 753]
10: weed control effect (activity level), Chenopodiaceae (Chenopodiaceae; Dose 3000 g/ha) | weed control effect (activity level), Amaranthus retroflexus (Amaranthus retroflexus; Dose 3000 g/ha) | weed control effect (activity level), Rorippa indica (Rorippa indica; Dose 3000 g/ha) | weed control effect (activity level), Veronica polita (Veronica polita; Dose 3000 g/ha)

O=C(Oc1cc(C(F)(F)F)nnc1-c1ccccc1)N1CCOCC1 [Compound 1-65]
10: weed control effect, Chenopodiaceae (activity level) (Chenopodiaceae; Dose 3000 g/ha) | weed control effect, Amaranthus retroflexus (activity level) (Amaranthus retroflexus; Dose 3000 g/ha) | weed control effect, Rorippa indica (activity level) (Rorippa indica; Dose 3000 g/ha) | weed control effect, Veronica polita (activity level) (Veronica polita; Dose 3000 g/ha)

Cc1cncc(-c2nnc(C(F)(F)F)cc2O)c1 [Compound 211]
10: weed control effect (activity level), Chenopodiaceae (Chenopodiaceae; dose 2000 g/ha) | weed control effect (activity level), Amaranthus retroflexus (Amaranthus retroflexus; dose 2000 g/ha) | weed control effect (activity level), Rorippa indica (Rorippa indica; dose 2000 g/ha) | weed control effect (activity level), Veronica polita (Veronica polita; dose 2000 g/ha)

Cn1nc(I)cc1-c1nnc(C(F)(F)F)cc1O [Compound 778]
10: weed control effect (activity level), Chenopodiaceae (Chenopodiaceae; Dose 3000 g/ha) | weed control effect (activity level), Amaranthus retroflexus (Amaranthus retroflexus; Dose 3000 g/ha) | weed control effect (activity level), Rorippa indica (Rorippa indica; Dose 3000 g/ha) | weed control effect (activity level), Veronica polita (Veronica polita; Dose 3000 g/ha)

O=S(=O)(Oc1cc(C(F)(F)F)nnc1-c1ccccc1)c1cc(Cl)c(Cl)cc1Cl [Compound 1-136]
10: weed control effect, Chenopodiaceae (activity level) (Chenopodiaceae; Dose 3000 g/ha) | weed control effect, Amaranthus retroflexus (activity level) (Amaranthus retroflexus; Dose 3000 g/ha) | weed control effect, Rorippa indica (activity level) (Rorippa indica; Dose 3000 g/ha) | weed control effect, Veronica polita (activity level) (Veronica polita; Dose 3000 g/ha)

O=C(Oc1cc(C(F)(F)F)nnc1-c1ccc(F)cc1)c1ccno1 [Compound 1-109]
10: weed control effect, Chenopodiaceae (activity level) (Chenopodiaceae; Dose 3000 g/ha) | weed control effect, Amaranthus retroflexus (activity level) (Amaranthus retroflexus; Dose 3000 g/ha) | weed control effect, Rorippa indica (activity level) (Rorippa indica; Dose 3000 g/ha) | weed control effect, Veronica polita (activity level) (Veronica polita; Dose 3000 g/ha)

Oc1cc(C(F)(F)F)nnc1-c1cc2ccccc2o1 [Compound 613]
10: weed control effect (activity level), Chenopodiaceae (Chenopodiaceae; Dose 3000 g/ha) | weed control effect (activity level), Amaranthus retroflexus (Amaranthus retroflexus; Dose 3000 g/ha) | weed control effect (activity level), Rorippa indica (Rorippa indica; Dose 3000 g/ha) | weed control effect (activity level), Veronica polita (Veronica polita; Dose 3000 g/ha)

Cn1nccc1-c1nnc(C(F)(F)F)cc1O [Compound 774]
10: weed control effect (activity level), Chenopodiaceae (Chenopodiaceae; Dose 3000 g/ha) | weed control effect (activity level), Amaranthus retroflexus (Amaranthus retroflexus; Dose 3000 g/ha) | weed control effect (activity level), Rorippa indica (Rorippa indica; Dose 3000 g/ha) | weed control effect (activity level), Veronica polita (Veronica polita; Dose 3000 g/ha)

O=C(COc1cc(C(F)(F)F)nnc1-c1ccc(F)c(F)c1)c1ccccc1 [Compound 1-213]
10: weed control effect, Chenopodiaceae (activity level) (Chenopodiaceae; Dose 3000 g/ha) | weed control effect, Amaranthus retroflexus (activity level) (Amaranthus retroflexus; Dose 3000 g/ha) | weed control effect, Rorippa indica (activity level) (Rorippa indica; Dose 3000 g/ha) | weed control effect, Veronica polita (activity level) (Veronica polita; Dose 3000 g/ha)

O=C(CCc1ccccc1)Oc1cc(C(F)(F)F)nnc1-c1ccc(F)c(F)c1 [Compound 1-98]
10: weed control effect, Chenopodiaceae (activity level) (Chenopodiaceae; Dose 3000 g/ha) | weed control effect, Amaranthus retroflexus (activity level) (Amaranthus retroflexus; Dose 3000 g/ha) | weed control effect, Rorippa indica (activity level) (Rorippa indica; Dose 3000 g/ha) | weed control effect, Veronica polita (activity level) (Veronica polita; Dose 3000 g/ha)
